Results published in article PMC9198545, “Pharmacokinetics and Pharmacodynamics of Fungal Defensin NZX Against Staphylococcus aureus-Induced Mouse Peritonitis Model” (Frontiers in Microbiology, 2022).
In brackets after ≈: the same amount, converted by molar mass. Read-outs that look alike come from different tables or passages of the source.

What was measured:
S. aureus E48 [1] = assay: microbe, parasite or virus in culture
Description: (§1) The MICs of NZX and other antibacterial agents against S. aureus strains were conducted according to the Clinical Laboratory Standards Institute (Watts et al., [2013]). […] The wells containing antibiotics were set as positive controls. Negative control wells contained a PBS buffer and bacterial suspension without antibacterial agents. The MIC value was defined as the lowest concentration of antibacterial agents at which no visible bacteria were observed. All MIC assays were performed independently in triplicate.

[2] = system: S. aureus MRSA ATCC 43300; assay: microbe, parasite or virus in culture
Description: as §1

S. aureus E48 [3] = assay: Survival rate and time-killing kinetic curves; format: cell-based, Staphylococcus aureus; details: for Survival rate of S. aureus E48: 1/2 × to 2 × MIC for 2 h, 1 × 10^5 CFU/ml, mean n = 3; for time to complete killing of S. aureus E48: 2 × MIC
Description: Survival rate and time-killing kinetic curves experiments were conducted as described previously (Li et al., [2020b]). […] After incubation at various times (0, 15, 30, 60, 90, and 120 min), a volume of 100 μl of bacterial suspension was taken out from a flask and diluted to count. All assays were conducted independently in triplicate.

S. aureus E48 [4] = assay: microbe, parasite or virus in culture; details: for MIC: Staphylococcus aureus, E48, read-out: MIC after 30-day serial passage
Description: The development of drug resistance of S. aureus E48 induced by NZX and antibiotics was conducted as described previously (Li et al., [2017]). The MICs of antibacterial agents were measured according to the MICs testing method as described above. […] Then, the MIC values of the next passage were conducted again, and the experimental procedures were repeated for 30 days. The development of drug resistance was determined by the fold changes in MICs.

S. aureus E48 [5] = assay: MIC in physiological salt and serum media; format: cell-based, Staphylococcus aureus; details: MHB adjusted to 1.25 mM CaCl2
Description: The physiological salt and serum stability of NZX were performed according to the previous report (Hirsch et al., [2019]).

S. aureus E48 [6] = assay: MIC after cathepsin B treatment or in MHB at pH 5.0; format: cell-based, Staphylococcus aureus; details: for change of MIC in phagolysosomal proteinase environment: cathepsin B 16 μg/ml, pH 5.0 buffer, 37°C, 1 h; for MIC at pH 5.0 compared to pH 7.4 (increase): MHB adjusted to pH 5.0, lysosomal acid environment
Description: To test the effect of phagolysosomal enzyme-cathepsin B (from bovine spleen, Sigma C7800) on the antibacterial activities of peptides, NZX was diluted to 640 μg/ml in a cathepsin buffer (5-mM L-cysteine, 20-mM sodium acetate, 1-mM EDTA, pH of 5.0) and incubated with 16 μg/ml enzyme solution at 37°C for 1 h. The MIC value of NZX against S. aureus E48 was examined. NZX without enzyme solution was set as the negative control. Additionally, to mimic the intracellular condition, the MHB medium was adjusted to a specific pH value of 5.0 to determine the MIC value of NZX against S. aureus E48 in the acidic environment (Wang et al., [2019]). In all experiments, clindamycin, linezolid, daptomycin, and ampicillin acted as antibiotic control.

[7] = system: intracellular S. aureus E48 in RAW 264.7; assay: Intracellular antibacterial activity in RAW 264.7 cells; format: cell-based, Staphylococcus aureus; details: 1, 4, 16, 64 and 128 μg/ml, 24 h
Description: The antibacterial effects of NZX against intracellular S. aureus E48 in RAW 264.7 were determined according to a previous study (Wang et al., [2018]). The antibacterial concentrations of NZX against S. aureus E48 were set as 1, 4, 16, 64, and 128 μg/ml. Daptomycin was selected as a control because it is a polypeptide drug similar to NZX. In addition, the internalization and distribution assays of NZX in RAW 264.7 were conducted according to Wang et al. ([2019]). Briefly, RAW 264.7 cells were grown on culture dishes at 37°C for 24 h. FITC or FITC-NZX (1, 16, and 64 μg/ml) was added and incubated in the culture dishes for 24 h. The cells were washed two times with PBS and quenched by 0.04% trypan blue. Samples were analyzed by flow cytometry to determine the uptake of NZX. In distribution analysis, FITC or FITC-NZX at 64 μg/ml was added and incubated in the culture dishes for 24 h. The cells were washed two times with PBS, stained with 5 μg/ml wheat germ agglutinin (WGA)-conjugated Alexa Fluor 555 (ThermoFisher Scientific, USA) and Hoechst 33342 (ThermoFisher Scientific, USA) for 10 min, and observed by confocal microscopy (Leica TCS SP 5, Germany).

S. aureus E48 [8] = format: in vivo, mouse; details: for survival rate of the mice: 7 days, n = 6; for extension of survival time: 20 mg/kg intravenous single injection
Description: Each mouse was received a peritonitis by intraperitoneal injection of S. aureus E48 suspended in a PBS buffer (2 × 10^8 CFU/ml, 0.5 ml). […] After therapy, the survival conditions of the mice were recorded within 7 days.

S. aureus E48 [9] = assay: Bacterial burden in organs and peritoneal fluid, mouse peritonitis model; format: in vivo; details: 20 mg/kg, 24 h
Description: In this study, untreated mice that received a lethal dose of S. aureus (2 × 10^8 CFU/ml, 0.5 ml) began to die at 6 to 8 h, and all died before 24 h, which made it difficult for us to obtain the samples when the therapy effects after 24 h administration were analyzed. Therefore, the mice that received half lethal doses of S. aureus E48 (1 × 10^8 CFU/ml, 0.5 ml) were conducted in the following pharmacodynamics analysis. After 24 h therapy with NZX (5, 10, and 20 mg/kg) or daptomycin (20 mg/kg), organ tissues, including livers, lungs, spleens, hearts, and kidneys, were collected, homogenated, and plated to count bacterial burden. In addition, the total number of bacteria and intracellular bacteria counts in peritoneal fluids were determined as described by Wang et al. ([2018]). Briefly, the total bacterial CFU in the peritoneal fluid were quantified before any further procedures. In addition, the collected peritoneal fluid was centrifuged and washed to obtain peritoneal macrophage, and then extracellular bacteria were killed after treatment with 50 μg/ml lysostaphin at 37°C for 30 min. The cells were washed two times by PBS and suspended with 1 ml of cold sterile water for lysis, and the lysate was used to determine the intracellular bacterial burden.

[10] = system: S. aureus MSSA ATCC 25923; assay: microbe, parasite or virus in culture; details: Staphylococcus aureus, ATCC25923|MSSA
Description: as §1

S. aureus E48 [11] = details: ref Yang et al., 2019, cited from earlier work
Text: NZX, a variant of plectasin, has garnered interest as an ideal therapeutic drug against S. aureus because of its ability to kill intracellular bacteria and good biocompatibility (Tenland et al., [2018]; Liu et al., [2020]). […] T ...

[12] = ref Liu et al., 2020; cited from earlier work
Text: However, plectasin had some limitations before clinical application, such as cytotoxicity and trypsin instability (Yang et al., [2019]). NZX (MW 4383.89 Da), a variant of plectasin with three mutation sites (D9S, M13I, and K32R), had the increased net charge (from +1 to +2) and hydrophobicity (from −0.695 to ...

[13] = design: method as in Andes et al., 2009; Brinch et al., 2009; details: in human and mice serum, ref Andes et al., 2009, Brinch et al.; cited from earlier work
[14] = repeated exposure at sub-MIC for 30 days
[15] = 20 mg/kg intravenous single injection 2 h post-infection, 2 × 10^8 CFU/ml, 0.5 ml i.p.
[16] = 20 mg/kg intravenous two times (2 h and 8 h after infection)
[17] = 1 × 10^5 CFU/ml, 16–18 h at 37°C, 96-well microplate, daptomycin with 1.25 mM calcium chloride, triplicate
[18] = text summary over two strains: S. aureus MSSA ATCC 25923 and S. aureus E48

Molecule | Survival rate of S. aureus E48 (S. aureus E48 [3]) | time to complete killing of S. aureus E48 (S. aureus E48 [3]) [h] | change of MIC in phagolysosomal proteinase environment (S. aureus E48 [6]) | survival rate of the mice (S. aureus E48 [8]; [15]) | survival rate of the mice (S. aureus E48 [8]; [16]) | MIC at pH 5.0 compared to pH 7.4 (increase) (S. aureus E48 [6]) | MIC (S. aureus E48 [1]; Staphylococcus aureus) [µg/mL] | MIC ([2]; Staphylococcus aureus) [µg/mL] | MIC [10, 17] [µg/mL] | MIC [10, 18] [µg/mL] | MIC (S. aureus E48 [4]) [µg/mL] | extension of survival time (S. aureus E48 [8]) [days] | further results
CCCCCCCCCC(=O)N[C@@H](Cc1c[nH]c2ccccc12)C(=O)N[C@H](CC(N)=O)C(=O)N[C@@H](CC(=O)O)C(=O)N[C@@H]1C(=O)NCC(=O)N[C@@H](CCCN)C(=O)N[C@@H](CC(=O)O)C(=O)N[C@H](C)C(=O)N[C@@H](CC(=O)O)C(=O)NCC(=O)N[C@H](CO)C(=O)N[C@@H]([C@H](C)CC(=O)O)C(=O)N[C@@H](CC(=O)c2ccccc2N)C(=O)O[C@@H]1C [Daptomycin] | 0–83.03% | ≤ 2 | did not change | 16.7% | 100% |  |  |  |  |  |  |  | MIC (S. aureus E48 [1]): 1 µg/mL (≈ 0.617 µM); MIC ([2]; ATCC 43300): 0.5 µg/mL (≈ 0.309 µM); MIC after 30-day serial passage (S. aureus E48 [4]; [14]): 8 µg/mL (≈ 4.94 µM); decrease of MIC under the addition of 1.25-mM CaCl2 (S. aureus E48 [5]): 8–16 fold; reduction of intracellular S. aureus [7]: 89.74~98.53%; bacteria burdens of liver, lung and spleen compared with the untreated group (S. aureus E48 [9]): no obvious difference; reduction of intracellular bacteria burden in the peritoneal fluid (S. aureus E48 [9]; mean ± SD, n = 6): 0.66 ± 0.83 Log10 CFU/ml; reduction of total bacterial burden in the peritoneal fluid (S. aureus E48 [9]; mean ± SD, n = 6): 1.79 ± 1.05 Log10 CFU/ml
CCC[C@@H]1C[C@@H](C(=O)N[C@@H]([C@H]2O[C@H](SC)[C@H](O)[C@@H](O)[C@H]2O)[C@H](C)Cl)N(C)C1 [Clindamycin] |  | ≤ 2 | at least 4 fold |  |  | ≤ 8 fold |  |  |  |  |  |  | 
CC1(C)S[C@@H]2[C@H](NC(=O)[C@H](N)c3ccccc3)C(=O)N2[C@H]1C(=O)O [Ampicillin] | 83.21–100.31% |  | at least 4 fold | all the mice were dead | 50% | did not influence | 0.25 (≈ 0.715 µM) | 8 (≈ 22.9 µM) | 0.25 (≈ 0.715 µM) | 0.25 (≈ 0.715 µM) | 16 (≈ 45.8 µM) | 2 to 4 | 
CC(=O)NC[C@H]1CN(c2ccc(N3CCOCC3)c(F)c2)C(=O)O1 [Linezolid] | 94.08–99.89% |  | did not change | all the mice were dead | did not improve the survival rate | did not influence | 1 (≈ 2.96 µM) | 2 (≈ 5.93 µM) | 2 (≈ 5.93 µM) | 1 to 2 (≈ 2.96 to 5.93 µM) | 2 (≈ 5.93 µM) | 2 to 4 | increase in the MIC value after 30-day serial passage (S. aureus E48 [4]; [14]): 2 fold; lives extended (S. aureus E48 [8]; 20 mg/kg intravenous two times): 2 to 6 days
plectasin |  |  |  |  |  |  |  |  |  |  |  |  | S. aureus E48 killed (S. aureus E48 [11]; 2 × MIC, within 1 h): approximately 85.85%; time to eliminate bacteria (S. aureus E48 [11]; 2 × MIC): ≤ 2 h; MIC (S. aureus E48 [11]; strain not given, compared with Table 2): 4 µg/mL; hydrophobicity [12]: −0.695; net charge [12]: +1; protein-binding degree [13]: 90%
